“Also recorded” adds a separate entry of the source.
Tests used:
human MT1 receptor = biological target: T1, human MT1 receptor (Homo sapiens, UniProt P48039); assay: 2-[125I]iodomelatonin competition binding, human MT1 in CHO cells; conditions: human MT1 stably expressed in CHO cells, calculated from IC50 by Cheng and Prusoff
T1 construct: expressed in transfected cells

human MT2 receptor = biological target: T2, human MT2 receptor (Homo sapiens, UniProt P49286); assay: 2-[125I]iodomelatonin competition binding, human MT2 in CHO cells
T2 construct: expressed in transfected cells
T2 sequence (P49286 1-362): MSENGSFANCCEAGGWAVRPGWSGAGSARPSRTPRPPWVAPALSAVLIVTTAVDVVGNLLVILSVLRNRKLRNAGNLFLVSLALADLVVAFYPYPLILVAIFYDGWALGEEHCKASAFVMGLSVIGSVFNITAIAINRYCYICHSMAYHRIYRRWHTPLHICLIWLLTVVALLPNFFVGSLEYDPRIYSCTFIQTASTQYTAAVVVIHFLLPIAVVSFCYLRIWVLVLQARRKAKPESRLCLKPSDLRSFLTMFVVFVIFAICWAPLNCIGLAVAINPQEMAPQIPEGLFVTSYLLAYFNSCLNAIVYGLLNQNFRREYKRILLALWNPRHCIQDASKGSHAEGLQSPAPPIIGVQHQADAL

human-cloned MT1 = biological target: T3, human-cloned MT1 (Homo sapiens, UniProt P48039); assay: impedance assay in CHO cells expressing human-cloned MT1 (functional activity); assay type: cell-based; conditions: for activity for the MLT receptor subtype MT1 (in words): CHO cells; on MT1 Activity: key: A = ago0nist; PA = partial agonist; ANT = antagonits
T3 construct: expressed in transfected cells

Wistar rats = assay: formalin test; assay type: in vivo, rat; conditions: for licking time vs vehicle, first phase / licking time vs vehicle, total time / licking time vs vehicle, second phase: 30 min prior to test; for licking time compared to untreated rats: summary statement, dose not stated
Method: (§1) Animals: Wistar rats (150-250 g, Charles-River Saint-Constant, Quebec, Canada) were used for the formalin test, hot plate test and L5-L6 spinal nerves ligature model. The animals were housed at constant room temperature and humidity under a 12 h light/dark cycle (lights on at 7 AM). Food and water were available ad libitum.
Formalin Test: Antinociception was assessed using the formalin test (Dubuisson and Dennis, 1977). Rats were placed in open Plexiglas observation chambers for 60 min to allow them to acclimatize to their surroundings; then they were removed for formalin administration. Rats were gently restrained while the dorsal surface of the right hindpaw was injected with […] of 1% formalin (37% formaldehyde solution further diluted in saline solution) with a 30-gauge needle. The animals were returned to the chambers and nociceptive behavior was observed immediately after formalin injection. Mirrors were placed in each chamber to enable unhindered observation. Licking/biting behavior directed to the formalin injected paw was scored in 5 min intervals considering number and duration of the licking. Cumulative behavior for the total duration of the test as well as the first (0-10 min) and second phase (20-50 min) was then analyzed (Sufka et al., 1998).The initial acute phase (0-10 min) was followed by a relatively short quiescent period, which was then followed by a prolonged tonic response (15-60 min). The first phase is considered to be the result of direct stimulation of nociceptors, whereas inflammation process contributes to phase 2 activity (Hunskaar and Hole, 1987). At the end of the experiment the rats were sacrificed in a CO2 chamber.
(§2) Statistical Analysis: Data analysis was done using SigmaPlot 12 (Systat Software, Inc.). Two-way ANOVA for repeated measures was used to analyze data from L5-L6 models using treatments (between) and testing time (within) as factors. One-way ANOVA was used to analyze AUC in the L5-L6 spinal nerves ligation model. One-way ANOVA was used for formalin and hot-plate tests. Post-hoc analyses were performed using Bonferroni t-test comparisons or Student-Newman-Keuls (SNK) test. All data are expressed as mean±Standard Error of the Mean (SEM). P<0.05 was considered significant.

[1] = test system: rats with L5-L6 spinal nerves ligation; assay: L5-L6 spinal nerves ligature model, von Frey paw withdrawal threshold; assay type: in vivo, rat; conditions: for AUC of the antiallodynic effect across 8 h: mean±SEM, VEH 36.24±1.8 g; for AUC antiallodynic effect compared with GBP 100 mg/kg / AUC antiallodynic effect compared with MLT 150 mg/kg: doses of 20 and 40 mg/kg; for tactile allodynia in L5-L6 nerve ligated rats / analgesic effect in allodynic rats: summary statement; for tactile allodynia in L5-L6 nerve ligated rats: hindpaw withdrawal threshold to mechanical stimulation; for analgesic effect in allodynic rats: hindpaw withdrawal threshold vs untreated allodynic rats
Method: as §1
L5-L6 Spinal Nerves Ligature: Nerve injury results in abnormal pain perception, known as neuropathic pain, which is associated with hyperalgesia (high pain sensibility) and allodynia (pain perception induced by innocuous stimuli) (Campbell and Meyer, 2006). The rat model for neuropathic pain develop by Kim and Chung (Kim and Chung, 1992) was used in which the L5 and L6 spinal nerves were ligated and two weeks later allodynia was measured by paw stimulation with von Frey filaments. Briefly, animals were anesthetized with a mixture of ketamine/xylazine/acepromazine (i.p.). Following surgical preparation and exposure of the dorsal vertebral column, the left L5 and L6 spinal nerves were exposed and tightly ligated with 3.0 chromic catgut suture distal to the dorsal root ganglion. For sham-operated rats, the nerves were exposed but not ligated. The incisions were closed using 3.0 vicryl sutures, and the animals were allowed to recover for 13 days.
On day 14 after surgery, rats were singularly placed in a test chamber (clear plastic, wire mesh-bottomed cage) and allowed to acclimatize for 30-40 min. Von Frey filaments (Stoelting, Wood Dale, Ill., USA) were used to measure the 50% paw withdrawal threshold using the up and down method by (Chaplan et al., 1994). […] Lifting of the paw indicated a positive response and prompted the use of the next weaker filament, whereas absence of paw withdrawal after 5 s indicated a negative response and prompted the next filament of increasing weight. This paradigm continued for four more measurements after the initial change of the behavioral response, or until five consecutive negative (assigned a score of 15 g), or four consecutive positive (assigned a score of 0.25 g) responses. The resulting score were used to calculate the 50% response threshold by using the formula proposed by Dixon et al., 1980.
Allodynia was considered to be present when paw withdrawal thresholds were less than 4 g. (Chaplan et al., 1994). All nerve-ligated rats were verified to be allodynic, responding to a stimulus of less than 4 g. Rats without allodynia were excluded. Following the determination of the basal response, tactile allodynia was assessed at 0.5, 1, 2, 3, 4, 5, 6, 7 and 8 h post-administration for each treatment below described.
[…] […] Another group of rats received only the vehicle (VEH) consisting on a 70% DMSO/saline solution (0.9% NaCl). All treatments were administered in a single subcutaneous injection with a volume of 1 ml. Rats were tested at 0 h (basal withdrawal threshold) and 0.5, 1, 2, 3, 4, 5, 6, 7 and 8 h post-treatment administration.
as §2

[2] = 20 mg/kg s.c., at 3 h (5b) or 5 h (5p) post-administration
[3] = 40 mg/kg s.c., at 2 h (5b) or 5 h (5p) post-administration

T3 sequence (P48039 whole entry): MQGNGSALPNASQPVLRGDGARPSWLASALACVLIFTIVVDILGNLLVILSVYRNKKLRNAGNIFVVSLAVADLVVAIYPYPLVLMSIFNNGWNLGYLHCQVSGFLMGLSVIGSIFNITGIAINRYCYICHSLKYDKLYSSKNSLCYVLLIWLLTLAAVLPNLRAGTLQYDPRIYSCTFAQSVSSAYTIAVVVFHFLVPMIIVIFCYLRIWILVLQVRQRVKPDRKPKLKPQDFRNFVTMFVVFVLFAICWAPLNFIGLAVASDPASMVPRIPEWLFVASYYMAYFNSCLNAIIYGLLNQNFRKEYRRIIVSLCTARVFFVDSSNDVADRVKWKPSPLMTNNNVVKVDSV
T1 sequence (P48039 whole entry): as above

SMILES	activity for the MLT receptor subtype MT1 (in words) (human-cloned MT1)	licking time vs vehicle, first phase (Wistar rats; 10 mg/kg)	licking time vs vehicle, first phase (Wistar rats; 20 mg/kg s.c.)	licking time vs vehicle, second phase (Wistar rats; 20 mg/kg s.c.)	licking time vs vehicle, total time (Wistar rats; 20 mg/kg s.c.)	licking time vs vehicle, first phase (Wistar rats; 40 mg/kg)	licking time vs vehicle, second phase (Wistar rats; 40 mg/kg)	licking time vs vehicle, total time (Wistar rats; 40 mg/kg)	licking time compared to untreated rats (Wistar rats)	AUC of the antiallodynic effect across 8 h ([1]; 5 mg/kg s.c.)	AUC of the antiallodynic effect across 8 h ([1]; 10 mg/kg s.c.)	duration of effect on paw withdrawal threshold, post-administration ([1]; 20 mg/kg s.c.)	reduction of the mechanical allodynia above the threshold (4 g) ([1]; 20 mg/kg s.c.)	start of increase of paw withdrawal threshold, post-administration ([1]; 20 mg/kg s.c.)	highest increase in paw withdrawal threshold [1, 2]	AUC of the antiallodynic effect across 8 h ([1]; 20 mg/kg s.c.)	duration of effect on paw withdrawal threshold, post-administration ([1]; 40 mg/kg s.c.)	reduction of the mechanical allodynia above the threshold (4 g) ([1]; 40 mg/kg s.c.)	start of increase of paw withdrawal threshold, post-administration ([1]; 40 mg/kg s.c.)	highest increase in paw withdrawal threshold [1, 3]	other results
COc1cccc(N(CCNC(C)=O)c2ccccc2)c1 [5b, N-{2-[(3-Methoxyphenyl)-phenylamino]ethyl}acetamide]	partial agonist activity	decrease in the licking time	decrease in the licking time; also recorded: decreased the licking time	decreased the licking time; also recorded: decrease of the licking time	reduction of the licking time; also recorded: decrease in the licking time; also recorded: decreased the licking time	decrease in the licking time; also recorded: decreased the licking time	decreased the licking time	reduction of the licking time; also recorded: decreased the licking time	significantly decreased	81.11 ± 4.8 g	70.24 ± 4.23 g	up to 5 h	reduction of the mechanical allodynia above the threshold	1 h	419 % from basal	219.12 ± 24.13 g	≤ 6 h	reduction of the mechanical allodynia above the threshold	0.5 h	395 % from basal	MT1 pKi (human MT1 receptor): 8.38; MT2 affinity compared with melatonin (human MT2 receptor): better MT2 affinity than melatonin; MT2-selectivity (human MT2 receptor; MT2 versus MT1): good MT2-selectivity; MT2 pKi (human MT2 receptor; human MT2 stably expressed in CHO cells, calculated from IC50 by Cheng and Prusoff): 10.18; licking time vs vehicle, total time (Wistar rats; 10 mg/kg): reduction of the licking time; AUC of the antiallodynic effect across 8 h ([1]; 40 mg/kg s.c.): 220.13 ± 13.65 g; AUC antiallodynic effect compared with GBP 100 mg/kg [1]: comparable; AUC antiallodynic effect compared with MLT 150 mg/kg [1]: superior to MLT; tactile allodynia in L5-L6 nerve ligated rats [1]: reversed tactile allodynia; also recorded: reduced allodynia; analgesic effect in allodynic rats [1]: increased the analgesic effect
CC(=O)NCCN(c1ccc(F)cc1)c1cccc(Br)c1 [5p, N-{2-[(3-Bromophenyl)-4-fluorophenylamino]ethyl}acetamide]	antagonist	decrease in the licking time	decrease in the licking time; also recorded: decreased the licking time	decreased the licking time; also recorded: decrease of the licking time	reduction of the licking time; also recorded: decrease in the licking time; also recorded: decreased the licking time	decrease in the licking time; also recorded: decreased the licking time	decreased the licking time	reduction of the licking time; also recorded: decreased the licking time	significantly decreased	89.03 ± 6.33 g	127.75 ± 12.08 g	up to 6 h	reduction of the mechanical allodynia	1 h	394 % from basal	245.9 ± 19.9 g	up to 6 h	reduction of the mechanical allodynia	1 h	427.65 % from basal	Ki (human MT1 receptor; read-out: MT1 pKi (converted)): 178 nM; Ki (human MT2 receptor; human MT2 stably expressed in CHO cells, calculated from IC50 by Cheng and Prusoff, read-out: MT2 pKi (converted)): 0.537 nM; MT1 Activity (human-cloned MT1; intrinsic activity, human MT1 in CHO cells): ANT; licking time vs vehicle, second phase (Wistar rats; 10 mg/kg): decreased the licking time; duration of effect on paw withdrawal threshold, post-administration ([1]; 10 mg/kg s.c.): up to 3 h; start of increase of paw withdrawal threshold, post-administration ([1]; 10 mg/kg s.c.): 1 h; AUC of the antiallodynic effect across 8 h ([1]; 40 mg/kg s.c.): 230.33 ± 17.69 g; AUC antiallodynic effect compared with GBP 100 mg/kg [1]: comparable; AUC antiallodynic effect compared with MLT 150 mg/kg [1]: greater antiallodynic effect; tactile allodynia in L5-L6 nerve ligated rats [1]: reduced allodynia; also recorded: reversed tactile allodynia; analgesic effect in allodynic rats [1]: increased the analgesic effect
